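Assay format: 96-well plates, 48-hour exposure. GI50 = concentration required for 50% inhibition of growth.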 The source made the active and inactive calls. No stated cut-off is given here; in the data, active = GI50 up to about 1.1 µM and inactive = higher.
Key:
Assay in all cases: DTP human tumour cell line panel, 48 h
[1] = tested on: 786-0
[2] = tested on: ACHN
[3] = tested on: EKVX
[4] = tested on: HCC 2998
[5] = tested on: HCT-15
[6] = tested on: HL-60
[7] = tested on: Hs-578T
[8] = tested on: M14
[9] = tested on: MCF7
[10] = tested on: MDA-MB-435
[11] = tested on: NCI-H23
[12] = tested on: PC-3
[13] = tested on: SF-268
[14] = tested on: SK-MEL-28
[15] = tested on: SK-MEL-5
[16] = tested on: SR
[17] = tested on: T47D
[18] = tested on: UACC-257
[19] = tested on: UO-31
[20] = tested on: NCI-H460

SMILES | GI50 [1] | GI50 [2] | GI50 [3] | GI50 [4] | GI50 [5] | GI50 [6] | GI50 [7] | GI50 [8] | GI50 [9] | GI50 [10] | GI50 [11] | GI50 [12] | GI50 [13] | GI50 [14] | GI50 [15] | GI50 [16] | GI50 [17] | GI50 [18] | GI50 [19] | GI50 [20]
CCn1ncc2c(=O)n3ncn(-c4ccc(Br)cc4)c3nc21 | > 100 µM (inactive) | > 100 µM (inactive) | > 100 µM (inactive) | > 100 µM (inactive) | > 100 µM | > 100 µM (inactive) | > 100 µM (inactive) | > 100 µM (inactive) | > 100 µM (inactive) | > 100 µM (inactive) | > 100 µM (inactive) | > 100 µM (inactive) | > 100 µM (inactive) | > 100 µM (inactive) | > 100 µM (inactive) | 58.1 µM (inactive) | > 100 µM (inactive) | > 100 µM (inactive) | > 100 µM (inactive) | 
COC(=O)CCCc1ccc2c(c1)CC1(C2)Cc2cc3c(cc2C1)CCCC3 | 43.9 µM (inactive) | 42.7 µM (inactive) | 35.2 µM (inactive) | 26.7 µM (inactive) | 14 µM | 12.4 µM (inactive) | 29.9 µM (inactive) | 24.7 µM (inactive) | 44.6 µM (inactive) | 13.9 µM (inactive) | 61.9 µM (inactive) | 36.8 µM (inactive) |  |  | 19.2 µM (inactive) | < 0.01 µM (active) | 50.7 µM (inactive) | 33.8 µM (inactive) | 86.7 µM (inactive) | 
CC(=O)CCN1CC2CN=NC2(C#N)C1 (configuration not stated) | 36.6 µM (inactive) | 24.8 µM (inactive) | > 100 µM (inactive) | > 100 µM (inactive) | 69 µM | 14.3 µM (inactive) | 1.65 µM (inactive) |  | 35.2 µM (inactive) | > 100 µM (inactive) | > 100 µM (inactive) | > 100 µM (inactive) | > 100 µM (inactive) | > 100 µM (inactive) | > 100 µM (inactive) | > 100 µM (inactive) | 35.6 µM (inactive) | > 100 µM (inactive) | > 100 µM (inactive) | > 100 µM (inactive)
C[C@@H]1CC[C@@]2(C)C(C(=O)O)=CCCC2[C@@]1(C)CC(=O)c1ccoc1 (some centres not stated) | > 25 µM (inactive) | > 25 µM (inactive) | > 25 µM (inactive) |  | > 25 µM | > 25 µM (inactive) | > 25 µM (inactive) | > 25 µM (inactive) | > 25 µM (inactive) | > 25 µM (inactive) | > 25 µM (inactive) | > 25 µM (inactive) | > 25 µM (inactive) | > 25 µM (inactive) | > 25 µM (inactive) | > 25 µM (inactive) | > 25 µM (inactive) | > 25 µM (inactive) | > 25 µM (inactive) | > 25 µM (inactive)
O=c1[nH]c(Br)nc2[nH]nnc12 | 25.1 µM (inactive) | > 100 µM (inactive) | 70.1 µM (inactive) | > 100 µM (inactive) | > 100 µM | 5.52 µM (inactive) | 38.3 µM (inactive) | 19.8 µM (inactive) | 74.1 µM (inactive) | 19.3 µM (inactive) | > 100 µM (inactive) | 69.5 µM (inactive) | 11 µM (inactive) |  | 68.9 µM (inactive) | 42.2 µM (inactive) | 26.2 µM (inactive) | 55.6 µM (inactive) | 11.7 µM (inactive) | > 100 µM (inactive)
Oc1ccc(Cl)cc1Sc1cc(Cl)ccc1O [FENTICLOR] | 18.1 µM (inactive) | 8.65 µM (inactive) | 15.5 µM (inactive) |  | 8.65 µM | 7.87 µM (inactive) | 4.98 µM (inactive) | 12.9 µM (inactive) | 17.3 µM (inactive) | 10.9 µM (inactive) | 5.04 µM (inactive) | 15.3 µM (inactive) | 10.3 µM (inactive) | 11.8 µM (inactive) | 3.83 µM (inactive) | 17.1 µM (inactive) | 5.85 µM (inactive) | 6.65 µM (inactive) | 6.78 µM (inactive) | 10.7 µM (inactive)

Source: ChEMBL document CHEMBL1201862, “PubChem BioAssay data set” (2004)
